The subject of test [1] is MCF-7 human breast cancer line. As to the kind of experiment: PET tracer uptake in multicellular tumor spheroids (MTS) after anticancer treatment. The following applies: MCF-7 MTSs; 1 and 10µM; 3 and 5 days of treatment; normalized to control. Format: cell-based. On the procedure:
Cells of the MCF-7 human breast cancer line (European Collection of Cell Culture) were grown in MEM/EBSS supplemented with 10% FCS, 1mM sodium pyruvate, 2mM L-glutamine, 1% non-essential amino acid and 5% penicillin (Tamro).
After 1 h the medium was renewed.
In each experimental set-up four MTSs in one 24-well plate were referred to as one group. The groups included control (without treatment agent) and five different treatments with same concentration.
The response to each anticancer treatment was evaluated by measurement of the tracer uptake and total volume of the MTSs after 3 and 5 days of treatment.
Images of MTSs were recorded using a Nikon Colorpix 4500 camera mounted on an inverted Zeiss microscope before Tracer incubation. The acquired data were analyzed by SASDM.
To monitor the effect of each anti-cancer treatment five established PET-tracers; [1-^11C]Acetate, [^11C]Choline, [^11C]Methionine, [^18F]3'-Deoxy-3'-fluorthymifine and 2-[^18F]Fluor-2-deoxyglucose were utilized.
The aggregates were incubated for 30 min (for ^18F-labled tracers) and 50 min (for ^11C-labled tracers) at 37°C with 0.5 ml medium per well containing 3MBq Tracer, and then washed 3x5 min (for ^18F-labled tracers) and 3x3 min (for ^11C-labled tracers) with medium (1 ml/well).
The Tracer-uptake in MTS was defined as: Total uptake = (Act conc.(Bq/ml)of MTS)/(Act conc.(Bq/ml)of reference) [formula]
Each experiment set-up was repeated three times.

Test [2] concerns MCF-7 human breast cancer line. As to the kind of experiment: [18F]FDG uptake per viable volume of MTS after anticancer treatment (MCF-7). In kind it is cell-based. To be noted: MCF-7 MTSs; for [^18F]FDG uptake per viable volume: highest dose of 1 µM. On the procedure:
(§1) • a. Cells of the MCF-7 human breast cancer line (European Collection of Cell Culture) were grown in MEM/EBSS supplemented with 10% FCS, 1mM sodium pyruvate, 2mM L-glutamine, 1% non-essential amino acid and 5% penicillin (Tamro). […] Cells of the BT474 human breast cancer line (American Type Culture Collection) were grown in DMEM supplemented with 10% FCS, 1mM sodium pyruvate, and 5% penicillin (Tamro).
(§2) The MTSs were incubated for 50 min at 37°C with 0.5 ml medium per well containing 3MBq [^18F]FDG[21], and then washed 3x5 min with medium (1 ml/well).
For the MCF-7 cell line, each group included 6 replicates and the experiments were repeated twice.
The response to each anticancer treatment was evaluated by measurement of the [^18F]FDG uptake and viable volume of the MTSs after 2 and 3 days of treatment.

For test [3], the system named is BT474 human breast cancer line. As to the kind of experiment: [18F]FDG uptake per viable volume of MTS after anticancer treatment (BT474). The following applies: BT474 MTSs.
The subject of test [4] is MTSs of MCF-7 cell line. As to the kind of experiment: Basic [18F]FDG uptake experiments in MTS (competition, inhibition, insulin). Format: cell-based, human. On the procedure: as §1, §2
To ensure the physiological validity of [^18F]FDG uptake in MTS, a number of basic experiments were performed: • Temperature dependence of [^18F]FDG uptake. The [^18F]FDG uptake experiments were performed with two different incubation temperatures: 4°C and 37°C. • Competition Experiment. Glucose concentration in the growing culture medium was 5 mM. To perform the competition experiment, unlabeled extra glucose was diluted in the growing culture medium with a concentration of 0mM (for the control group), 5mM, 10mM and 20mM. Culture medium was replaced by glucose/[^18F]FDG-containing culture medium. After 50 min incubation the [^18F]FDG uptake was measured. • Inhibition Experiment. The MTSs were pre-incubated with four different concentrations of an inhibitor of glucose transport, Cytochalasin-B; 0µM (for control group), 10µM, 25µM and 50µM followed by 50 min [^18F]FDG incubation. • Insulin-mediated [^18F]FDG uptake. The MTSs were pre-incubated with or without (control group) 10µM insulin followed by 50 min [^18F]FDG incubation.
It is noticeable that the basic experiments were performed only on MTSs of MCF-7 cell line. In each experimental set-up six MTSs in one 24-well plate were referred to as one group and the experiments were repeated three times.

Data on seven molecules can be found in patent publication EP1861713B1, “METHOD OF SCREENING PET TRACERS FOR EARLY CANCER THEREAPY MONITORING” (GE Healthcare Limited, priority 2005, dated 2006).

Each structure is given as a SMILES string. Entries after “also recorded” stand apart in the source; their conditions may differ. Where two headings read alike, the source gives them in different places.

Take `CC(=O)O[C@@]12CO[C@@H]1C[C@H](O)[C@@]1(C)C(=O)[C@H](O)C3=C(C)[C@@H](OC(=O)[C@H](O)[C@@H](NC(=O)OC(C)(C)C)c4ccccc4)C[C@@](O)([C@@H](OC(=O)c4ccccc4)[C@H]21)C3(C)C` [Docetaxel]: in test [1], the CHO-uptake entry is recorded as “increase”, the FLT-uptake result is “decreased” and the MET-uptake entry is given as “increase”.

Consider `COc1cccc2c1C(=O)c1c(O)c3c(c(O)c1C2=O)C[C@@](O)(C(=O)CO)C[C@@H]3O[C@H]1C[C@H](N)[C@H](O)[C@H](C)O1` [Doxorubicin], for which, in test [1], the ACE-uptake result is listed as “less decrease”, the FDG-uptake entry is reported as “less decrease” and the FLT-uptake entry was “considerable FLT-reduction; also recorded: decreased”. Moreover, in test [2] (at the highest dose), the “reduction of [^18F]FDG uptake per viable volume” value is 25%. For the same molecule, the “[^18F]FDG uptake per viable volume” value in test [2] is reported as “decreased”. Also, the “[^18F]FDG uptake per viable volume” value in test [3] (at the highest dose) is reported as “reduced; also recorded: decreased”.

As for `CC/C(=C(\c1ccccc1)c1ccc(OCCN(C)C)cc1)c1ccccc1` [Tamoxifen], in test [1], the ACE-uptake entry is listed as “increase”, the FLT-uptake entry is “decreased” and the MET-uptake entry is on record as “decrease”. Moreover, in test [2], the “[^18F]FDG uptake per viable volume” value is reported as “reduced”.

Regarding `Cc1ccc(NC(=O)c2ccc(CN3CCN(C)CC3)cc2)cc1Nc1nccc(-c2cccnc2)n1` [Imatinib], in test [1], the CHO-uptake result is “decrease” and the FLT-uptake result was “increase”.

As to `OC[C@H]1OC(O)[C@H](O)[C@@H](O)[C@@H]1O` (stereo partly drawn) [glucose], the IC50 in test [4] (Homo sapiens, MCF7, 50 min, unlabeled extra glucose 0, 5, 10, 20mM added to medium (5 mM glucose), 50 min incubation, read-out: concentration inducing a 50% reduction of [^18F]FDG uptake compared to control) came to 10 mM. In test [4] (increasing concentration of glucose added to incubation medium), the “[^18F]FDG uptake in MTSs” value was “gradually decreased”.

For `CC(=O)O[C@H]1C(=O)[C@@]2(C)[C@H]([C@H](OC(=O)c3ccccc3)[C@]3(O)C[C@H](OC(=O)[C@H](O)[C@@H](NC(=O)c4ccccc4)c4ccccc4)C(C)=C1C3(C)C)[C@]1(OC(C)=O)CO[C@@H]1C[C@@H]2O` [Paclitaxel], in test [1], the ACE-uptake result was “approximately as non-treated MTSs”, the FDG-uptake result is “approximately as non-treated MTSs” and the FLT-uptake entry is given as “significant decrease; also recorded: decreased”. Moreover, the “[^18F]FDG uptake per viable volume (glucose transport)” value in test [2] (10nM, 100nM, 1µM, 2 and 3 days, overall) is recorded as “more moderate”. Further, in test [3] (lowest dose and shorter treatment time), the “glucose transport per viable volume” value is recorded as “reduced”.

With `C=C1[C@@H](C)[C@H]2[C@H](Cc3ccccc3)NC(=O)[C@]23OC(=O)/C=C/[C@H](O)CCC[C@@H](C)C/C=C/[C@H]3[C@@H]1O` [Cytochalasin B], the “[^18F]FDG uptake” value in test [4] (glucose-transport inhibitor added to incubation medium, 10-50µM) is “significantly decreased”. Also, the IC50 in test [4] (pre-incubation 0, 10, 25, 50µM, then 50 min [18F]FDG incubation, read-out: 50% inhibition of [^18F]FDG uptake) was 0.012 mM.
